Holding throughout (assay type): in vivo
Assay [1] has as its system angiogenesis induced by TGF-α. Description: chick CAM assay, TGF-α-induced angiogenesis. The settings on record: TGF-α 1.0 μg/ml; antibodies 75 μg per embryo, calphostin C 100 nM. As to the method: (§1) The above growth factors (cytokines), including bFGF and VEGF, were separately applied at a concentration of 1.0 μg/ml to the 10 day old CAM model as previously described. PMA was used at a concentration of 20 ng/ml.
(§2) After 24 hours after growth factor treatment, the antibodies, LM609 and P1F6, or the protein kinase C (PKC) inhibitor, calphostin C, were separately provided to the CAM model, either by a single intravascular dose as described above or by topical administration as described below in the next example. For intravascular injections over the next 3 day consecutive period, the antibodies were used at a concentration of 75 μg per embryo and the calphostin C was at a dosage of 100 nM.
(§3) On day 13, filter discs and associated CAM tissue were dissected and analyzed for angiogenesis with a stereo microscope. Angiogenesis was scored in a double blind manner by analyzing the number and extent of branching of the blood vessels within the area of the discs. The scores ranged from low (1) to high (4). The angiogenesis index was determined by subtracting a background score of 1 from all data. Experiments were repeated 2–4 times with 5–6 embryos per condition.

Assay [2] relates to TNF-α mediated angiogenesis. Put plainly: chick CAM assay, TNF-α-induced angiogenesis. The settings on record: TNF-α 1.0 μg/ml; antibodies 75 μg per embryo, calphostin C 100 nM. The method, then: as §1, §2, §3
The test system of assay [3] is bFGF-induced angiogenesis. Put plainly: chick CAM assay, bFGF-induced angiogenesis, intravenous inhibitors. As to the method:
(§4) Ten day old chick embryos were obtained from McIntyre Poultry (Lakeside, Calif.) and incubated at 37C with 60% humidity. A small hole was made through the shell at the end of the egg directly over the air sac with the use of a small crafts drill (Dremel, Division of Emerson Electric Co., Racine, Wis.). A second hole was drilled on the broad side of the egg in a region devoid of embryonic blood vessels determined previously by candling the egg. […] A 1.0 centimeter (cm)×1.0 cm square window was cut through the shell over the dropped CAM with the use of a small model grinding wheel (Dremel). The small window allowed direct access to the underlying CAM.
(§5) Angiogenesis was induced by placing a 5 millimeter (mm)×5 mm Whatman filter disk (Whatman Filter paper No. 1) saturated with Hanks Balanced Salt Solution (HBSS, GIBCO, Grand Island, N.Y.) or HBSS containing preselected cytokines at a preselected concentration, i.e. one to test the effect on angiogenesis, on the CAM of a 10 day chick embryo in a region devoid of blood vessels and the windows were later sealed with tape. Angiogenesis was monitored by photomicroscopy after 72 hours. CAMs were snap frozen then 6 μm cryostat sections were fixed with acetone and stained by immunofluorescence as described in Example 2B and 2C with 10 μg/ml of selected anti-integrin antibodies, including those directed against αvβ5 as described in Example 1.
(§6) Angiogenesis was first induced on 10 day old chick embryos by application of growth factor-saturated filter disks. Specifically, in the first assays, angiogenesis was induced by exposure to either bFGF or VEGF, each at a concentration of 150 ng/ml.
(§7) For application of growth factors, during the candling procedures, prominent blood vessels were selected and marks were made on the egg shell to indicate their positions. The holes were drilled in the shell, the CAMs were dropped and growth factor-saturated filter papers were then separately placed on the CAMs as described above. The windows were sealed with sterile tape and the embryos were replaced in the incubator.
(§8) Twenty four hours later, a second small window was carefully cut on the lateral side of the egg shell directly over prominent blood vessels selected previously. The outer egg shell was carefully removed leaving the embryonic membranes intact. The shell membrane was made transparent with a small drop of mineral oil (Perkin-Elmer Corp, Norwalk, Conn.) which allowed the blood vessels to be visualized easily. Then, phosphate buffered saline (PBS), 75 μg of purified sterile anti-integrin antibodies or 75 μg of synthetic peptides (cyclic peptide RGDfV, SEQ ID NO 4 and control cyclic peptide RADfV, SEQ ID NO 5) in PBS were injected into blood vessels apparent on the growth factor-induced CAMs. The windows were sealed with tape and the embryos were allowed to incubate until 72 hours.
The filter discs and representative surrounding CAM tissues were photographed in a stereomicroscope (FIGS. 3A–3F and FIGS. 5A–5F) and the mean angiogenic index +/− the standard error was determined for 12 CAMs per condition (FIGS. 4A–4B and FIGS. 6A–6B). Angiogenesis was scored for each embryo in a double blind manner by analyzing the number and extent of branching of blood vessels within the area of each disc. The scores ranged from 1 (low) to 4 (high) and the angiogenesis index was determined by subtracting a background of 1 from all data. […]

Assay [4] relates to VEGF-induced angiogenesis. Put plainly: chick CAM assay, VEGF-induced angiogenesis, intravenous inhibitors. The method, then:
as §4, §5, §6, §7, §8
The filter discs and representative surrounding CAM tissues were photographed in a stereomicroscope (FIGS. 3A–3F and FIGS. 5A–5F) and the mean angiogenic index +/− the standard error was determined for 12 CAMs per condition (FIGS. 4A–4B and FIGS. 6A–6B). Angiogenesis was scored for each embryo in a double blind manner by analyzing the number and extent of branching of blood vessels within the area of each disc. The scores ranged from 1 (low) to 4 (high) and the angiogenesis index was determined by subtracting a background of 1 from all data.
In a further assay performed in the CAM model having VEGF-induced angiogenesis, 2 μg of peptides 85189 (SEQ ID NO 9) and the inert salt counterpart 121974 were separately intravenously injected as previously described. The effect of the peptides was assessed in comparison to that of control peptide 69601 (SEQ ID NO 5) and to untreated (labeled as NT) preparations.
The effect of the peptides of VEGF-induced angiogenesis is measured through a determination of the number of blood vessel branch points. […]

Assay [5] relates to angiogenesis induced by PMA. Description: chick CAM assay, PMA-induced angiogenesis. The conditions noted are these: PMA 20 ng/ml; antibodies 75 μg per embryo, calphostin C 100 nM. As to the method:
as §1, §2, §3

The test system of a further assay is retinal vasculogenesis. Description: newborn mouse model of retinal angiogenesis. As to the method:
For the model, newborn mice were injected subcutaneously twice daily for four days starting from day 0 with the cyclic peptide RGDfV (SEQ ID NO 4) (also referred to as peptide 203) or the control peptide RADfV (SEQ ID NO 5). On postnatal day five, globes were removed and fixed in 4.0% paraformaldehyde (PFA) at room temperature.
To quantitate mouse retinal angiogenesis, the distance from the optic nerve head to the most distal point of a single vessel selected in each of six equal sectors around a twelve hour clock was measured. The mean distance was calculated and averaged with similar data obtained from an entire litter. To measure the total volume of retinal blood vessels, the entire specimen was scanned in 2.0 μm optical sections and stored digitally. The “seed” function in Bio-Rad's Lasersharp software was then used to threshold and count cubic pixels in each section. A macro was written to sum the volume of all sections and determine the value for all vascular structures.

Here are results for two substances from patent publication US7053041B1, “Methods and compositions useful for inhibition of αvβ5mediated angiogenesis” (The Scripps Research Institute, priority 1996, dated 2006).

Consider calphostin C [reference compound], for which, in assay [1], the “effect on CAM angiogenesis induced by TGF-α (angiogenesis index)” value was “blocked angiogenesis”. Moreover, the “effect on CAM angiogenesis in response to TNF-α (angiogenesis index)” value in assay [2] is recorded as “minimal effects”. Besides, in assay [3] (bFGF 1.0 μg/ml, antibodies 75 μg per embryo, calphostin C 100 nM), the “effect on CAM angiogenesis in response to bFGF (angiogenesis index)” value was “minimal effects”. Besides, in assay [4] (VEGF 1.0 μg/ml, antibodies 75 μg per embryo, calphostin C 100 nM), the “effect on CAM angiogenesis induced by VEGF (angiogenesis index)” value is listed as “blocked angiogenesis”. The “effect on CAM angiogenesis induced by PMA (angiogenesis index)” value in assay [5] is reported as “blocked angiogenesis”.
Regarding “cyclo(Arg-Gly-Asp-D-Phe-Val) [compound 66203]”, in assay [3] (bFGF 150 ng/ml, 75 μg antibody or peptide intravenously, 72 hours), the “inhibition of bFGF-induced CAM angiogenesis” value is on record as “abolished angiogenesis”. The “volume of retinal blood vessels compared with untreated newborn mice” value in the assay with retinal vasculogenesis (five-day old treated animals) is “indistinguishable”. In addition, the “inhibition of retinal vasculogenesis compared to untreated counterparts” value with retinal vasculogenesis (newborn mice, s.c. twice daily for four days) is roughly 100%. Further, in the assay on retinal vasculogenesis (postnatal day five), the “mean volume of retinal vessels” value is 3.6×10^6 μm^3. The “inhibition of retinal vasculogenesis relative to control peptide (vessel growth in two dimensions)” value with retinal vasculogenesis (s.c. twice daily for four days from day 0, postnatal day five, N=9) turned out to be 44%. In the assay with retinal vasculogenesis (three dimensional analysis, postnatal day five), the “reduction in retinal vascular volume compared to controls” value was determined as 78%. In addition, the “difference in vessel growth between untreated newborn mice and treated five-day old mice” value in the assay on retinal vasculogenesis (two dimensions) was “No statistical difference”. In addition, in assay [4] (VEGF 150 ng/ml, 75 μg antibody or peptide intravenously, 72 hours), the “inhibition of VEGF-induced CAM angiogenesis” value was “abolished angiogenesis”.
